Experiment: In vitro skin permeation profiles (permeation cell)
Format: in vitro ADME, human
Procedure: Comparison In Vitro Skin Permeation Profiles of Amanidine Prodrugs • System: in-vitro permeation cell (9 ml acceptor volume/1.539 cm^2 diffusion area, 32° C.) • Acceptor medium: phosphate buffer pH 5.5+0.1% NaN3 according to DAB 10 • Active ingredient: benzamidine, benzamidoxime (from Ex. 1) • Skin type: human full skin, ID 899 (belly person) • Vehicle: suspension in olive oil (2% by weight, 50 mg suspension per cell), applied to a circular nonwoven disk made of synthetic wool ([…] type I/20) and occlusively covered with a PSA film (silicone adhesive) as “over-plaster”.

permeated amount (0 h, human full skin, 2% by weight suspension in olive oil, acceptor phosphate buffer pH 5.5, 32° C.) | permeated amount (8 h, human full skin, 2% by weight suspension in olive oil, acceptor phosphate buffer pH 5.5, 32° C.) | permeated amount (24 h, human full skin, 2% by weight suspension in olive oil, acceptor phosphate buffer pH 5.5, 32° C.) | permeated amount (32 h, human full skin, 2% by weight suspension in olive oil, acceptor phosphate buffer pH 5.5, 32° C.) | permeated amount (48 h, human full skin, 2% by weight suspension in olive oil, acceptor phosphate buffer pH 5.5, 32° C.) | permeated amount (female, human, 0 h, 2 % by weight, pH 5.5) | permeated amount (female, human, 8 h, 2 % by weight, pH 5.5) | permeated amount (female, human, 24 h, 2 % by weight, pH 5.5) | permeated amount (female, human, 32 h, 2 % by weight, pH 5.5) | permeated amount (female, human, 48 h, 2 % by weight, pH 5.5) | SMILES | comparison of the permeated amounts of benzamidine and benzamidoxime
0 | 2.24 | 13.7 | 21.2 | 41.3 |  |  |  |  |  | N=C(N)c1ccccc1 [Benzamidine, benzamidine, reference compound] | 
 |  |  |  |  | 0 | 50.2 | 235 | 315 | 403 | NC(=NO)c1ccccc1 [Benzamidinoxime, Benzamidoxime] | advantage of the benzamidoxime being clearly visible

Reference: US20110311593A1, “N-HYDROXYLATED AMIDINE-, GUANIDINE- AND/OR AMINOHYDRAZONE-TYPE PRODRUGS FOR APPLICATION ON THE SKIN” (priority 2009, published 2011)
